According to patent publication US8263083B2, “Combination therapy with antibody-drug conjugates” (priority 2007, dated 2012):
Like-named read-outs stand apart in the source and are kept apart here.

Key:
L540cy HL tumors = assay: Antitumor activity on subcutaneous L540cy HL tumors in SCID mice; type: in vivo; settings: for Median TGD (FIG. 6) (days to triple): Vinblastine q4dx3
Procedure: (§1) SCID mice were implanted with L540cy HL cells in the right flank.
as §1
SCID mice were implanted with L540cy HL cells in the right flank. Groups of mice (5-10/group) were untreated or received cAC10-vcMMAE (1 mg/kg, q4dx3, ip) alone, Gemcitabine (120 mg/kg, q4dx3, ip) alone, or combination treatment with cAC10-vcMMAE and Gemcitabine when tumor sizes averaged approximately 100 mm^3.
SCID mice were implanted with L540cy HL cells in the right flank. Groups of mice (5-10/group) were untreated or received cAC10-vcMMAE (1 mg/kg, q4dx3, ip) alone, Gemcitabine (120 mg/kg, q4dx3, ip) alone, or combination treatment with cAC10-vcMMAE and Gemcitabine, when tumor sizes averaged approximately 300 mm^3.
as §1, §1
(§2) SCID mice were implanted with L540cy HL cells in the right flank. Groups of mice (5-10/group) were untreated or received cAC10-vcMMAE (1 mg/kg, q4dx3, ip) alone, Vinorelbine alone (4 mg/kg q5dx3), or combination treatment cAC10-vcMMAE and vinorelbine when tumor sizes averaged approximately 100 mm^3.
as §2
SCID mice were implanted with L540cy HL cells in the right flank. Groups of mice (5-10/group) were untreated or received cAC10-vcMMAE (1 mg/kg, q4dx3, ip) alone, Doxorubicin alone (3 mg/kg q4dx3), or combination treatment with cAC10-vcMMAE and doxorubicin when tumor sizes averaged approximately 100 mm^3.
SCID mice were implanted with L540cy HL cells in the right flank. Groups of mice (5-10/group) were untreated or received cAC10-vcMMAE (1 mg/kg, q4dx3, ip) alone, Doxorubicin alone (1.5 mg/kg q4dx3), or combination treatment with cAC10-vcMMAE and doxorubicin when tumor sizes averaged approximately 100 mm^3.
SCID mice were implanted with L540cy HL cells in the right flank. Groups of mice (7-10/group) were untreated or received cAC10-vcMMAE (1 mg/kg, q4dx3, ip) alone, Vinblastine alone ([…] q4dx3), or combination treatment with cAC10-vcMMAE and vinblastine when tumor sizes averaged approximately 300 mm^3.
SCID mice were implanted with L540cy HL cells in the right flank. Groups of mice (6-8/group) were untreated or received cAC10-vcMMAE (1 mg/kg, q4dx3, ip) alone, Gemcitabine (120 mg/kg, q4dx3, ip) alone, or combination treatment with cAC10-vcMMAE and Gemcitabine when tumor sizes averaged approximately 100 mm^3.
as §1

[1] = system: relapsed or refractory HL; settings: cited from earlier work
[2] = FIG. 5A, first experiment, ~100 mm^3, cAC10-vcMMAE 1 mg/kg q4dx3 ip, Doxorubicin 3 mg/kg q4dx3
[3] = FIG. 5B, second experiment, ~100 mm^3, cAC10-vcMMAE 1 mg/kg q4dx3 ip, Doxorubicin 1.5 mg/kg q4dx3
[4] = ~100 mm^3, cAC10-vcMMAE 1 mg/kg q4dx3 ip, Gemcitabine 120 mg/kg q4dx3 ip
[5] = ~300 mm^3, cAC10-vcMMAE 1 mg/kg q4dx3 ip, Gemcitabine 120 mg/kg q4dx3 ip
[6] = FIG. 7, second study, ~100 mm^3, cAC10-vcMMAE 1 mg/kg q4dx3 ip, Gemcitabine 120 mg/kg q4dx3 ip
[7] = FIG. 6, ~300 mm^3, cAC10-vcMMAE 1 mg/kg q4dx3 ip, Vinblastine 0/1 mg/kg q4dx3
[8] = FIG. 6, ~300 mm^3, cAC10-vcMMAE 1 mg/kg q4dx3 ip
[9] = FIG. 4A, first experiment, ~100 mm^3, cAC10-vcMMAE 1 mg/kg q4dx3 ip, Vinorelbine 4 mg/kg q5dx3
[10] = FIG. 4B, second experiment, ~100 mm^3, cAC10-vcMMAE 1 mg/kg q4dx3 ip, Vinorelbine 4 mg/kg q5dx3

Molecule	Median TGD (FIG. 5A) (days to quadruple) (L540cy HL tumors; [2]) [days]	durable responses, animals/group (L540cy HL tumors; [2])	Median TGD (FIG. 5B) (days to quadruple) (L540cy HL tumors; [3]) [days]	durable responses, animals/group (L540cy HL tumors; [3])	Median TGD (FIG. 2A) (days to quadruple) (L540cy HL tumors; [4]) [days]	Median TGD (FIG. 2B) (days to triplicate) (L540cy HL tumors; [5]) [days]	Median TGD (FIG. 7) (days to quadruple) (L540cy HL tumors; [6]) [days]	durable responses, animals/group (L540cy HL tumors; [6])	durable responses, animals/group (L540cy HL tumors; [7])	Median TGD (FIG. 6) (days to triple) (L540cy HL tumors; [8]) [days]	Median TGD (FIG. 4A) (days to quadruple) (L540cy HL tumors; [9]) [days]	durable responses, animals/group (L540cy HL tumors; [9])	Median TGD (FIG. 4B) (days to quadruple) (L540cy HL tumors; [10]) [days]	durable responses, animals/group (L540cy HL tumors; [10])	further results
COc1cccc2c1C(=O)c1c(O)c3c(c(O)c1C2=O)C[C@@](O)(C(=O)CO)C[C@@H]3O[C@H]1C[C@H](N)[C@H](O)[C@H](C)O1 [Doxorubicin, reference compound]	32	0/3	27.2	0/9	–	–	–	–	–	–	–	–	–	–	–
Nc1ccn([C@@H]2O[C@H](CO)[C@@H](O)C2(F)F)c(=O)n1 [Gemcitabine, 4-amino-1-[(2R,4R,5R)-3,3-difluoro-4-hydroxy-5-(hydroxymethyl)oxolan-2-yl]pyrimidin-2-one, reference compound]	–	–	–	–	5	15.5	42	1/6	–	–	–	–	–	–	durable responses, animals/group (L540cy HL tumors; FIG. 8, at day 51, experiment not yet complete, ~100 mm^3, cAC10-mcMMAF 1 mg/kg q4dx3 ip, Gemcitabine 120 mg/kg q4dx3 ip): 0/10; response rates ([1]; relapsed/refractory setting, majority of patients with prior autologous or allogeneic transplant, Venkatesh et al. 2004): 22%; response rates ([1]; transplant naive setting, relapsed or refractory HL patients, Santoro et al. 2000): 39%
CC[C@]1(O)C[C@@H]2CN(CCc3c([nH]c4ccccc34)[C@@](C(=O)OC)(c3cc4c(cc3OC)N(C)[C@H]3[C@@](O)(C(=O)OC)[C@H](OC(C)=O)[C@]5(CC)C=CCN6CC[C@]43[C@@H]65)C2)C1 [Vinblastine, reference compound]	–	–	–	–	–	–	–	–	0/10	30.93	–	–	–	–	–
CCC1=C[C@@H]2CN(C1)Cc1c([nH]c3ccccc13)[C@@](C(=O)OC)(c1cc3c(cc1OC)N(C)[C@H]1[C@@](O)(C(=O)OC)[C@H](OC(C)=O)[C@]4(CC)C=CCN5CC[C@]31[C@@H]54)C2 [Vinorelbine, reference compound]	–	–	–	–	–	–	–	–	–	–	28	0/6	34.4	0/9	–
cAC10-vcMMAE: antibody-drug conjugate: chimeric AC10 anti-CD30 antibody linked via MC-val-cit-PAB to monomethyl auristatin E	64	1/6	78.8	4/10	34	39.5	78.01	1/7	1/8	45.9	64	1/6	78.8	4/10	effect on tumors compared to control treatment (L540cy HL tumors; FIG. 1A, monotherapy, tumors eventually progressed): induced tumor regressions and significant tumor growth delays; Median TGD (FIG. 1A) (days to quadruple) (L540cy HL tumors; FIG. 1A, treatment started at tumor size ~100 mm^3, cAC10-vcMMAE 1 mg/kg q4dx3 ip, ABVD: Adriamycin 1 mg/kg q4dx3 iv, Bleomycin 7.5 u/kg q4dx3 ip, Vinblastine 0.015 mg/kg q4dx3 ip, Dacarbazine 20 mg/kg q3dx4 ip): 63 days; durable responses (durable tumor regressions; absence of palpable tumor), animals/group (L540cy HL tumors; FIG. 1A, ~100 mm^3, cAC10-vcMMAE 1 mg/kg q4dx3 ip, ABVD full dose): 4/9; Median TGD (FIG. 1B) (days to triple) (L540cy HL tumors; FIG. 1B, treatment started at ~300 mm^3, cAC10-vcMMAE 1 mg/kg q4dx3 ip, ABVD: Adriamycin 0.75 mg/kg q4dx3 iv, Bleomycin 6 u/kg q4dx3 ip, Vinblastine 0.01 mg/kg q4dx3 ip, Dacarbazine 15 mg/kg q3dx4 ip): 41 days; durable responses, animals/group (L540cy HL tumors; FIG. 1B, ~300 mm^3, cAC10-vcMMAE 1 mg/kg q4dx3 ip, ABVD dosages reduced by 25%): 2/10; durable responses, animals/group (L540cy HL tumors; FIG. 3A, first experiment, ~100 mm^3, cAC10-vcMMAE 1 mg/kg q4dx3 ip, GVD): 4/9; Median TGD (FIG. 3A) (days to quadruple) (L540cy HL tumors; FIG. 3A, first experiment, ~100 mm^3, cAC10-vcMMAE 1 mg/kg q4dx3 ip, GVD: gemcitabine 60 mg/kg q4dx3 ip, vinorelbine 2 mg/kg q5dx3 ip, doxorubicin 1.5 mg/kg q4dx3 iv): 84.6 days; durable responses, animals/group (L540cy HL tumors; FIG. 3B, second experiment, ~100 mm^3, cAC10-vcMMAE 1 mg/kg q4dx3 ip, GVD): 0/7; Median TGD (FIG. 3B) (days to quadruple) (L540cy HL tumors; FIG. 3B, second experiment, ~100 mm^3, cAC10-vcMMAE 1 mg/kg q4dx3 ip, GVD: gemcitabine 60 mg/kg q4dx3 ip, vinorelbine 2 mg/kg q5dx3 ip, doxorubicin 1.5 mg/kg q4dx3 iv): 54.7 days
